From patent US20130274233A1, “MODULATORS OF HEDGEHOG SIGNALING PATHWAY” (priority 2012, published 2013)

Experiments:
Assay type in all cases: cell-based
Hh pathway activity [1] = assay: Gli-luciferase reporter assay, Hh pathway activation by compound alone (NIH/3T3 cells)
Description: (§1) ShhLightII cells and SmoM2/LightII cells were cultured and treated in 96 well assay plates (Corning) and incubated with Duo-Glo luciferase substrates (Promega) to sequentially measure firefly and renilla luciferase activity. Smo, or GFP, expression plasmids were co-transfected into 3T3 cells together with a Gli-responsive firefly reporter and a TK-renilla luciferase reporter contruct to monitor effects of Smo overexpression. Co-transfection of the two reporter constructs was conducted in assays measuring Hh pathway activity in suFU−/− cells. Wnt activity was measured following co-transfection of a Top-flash and renilla luciferase reporter. In both Hh and Wnt activity assays, renilla luciferase reporter activity, or mass of protein, was used to normalize expression values. Luciferase signal was read by TopCount NX Microplate Scintillation and Luminescence Counter (Perkin Elmer). Quantitative PCR probes for Ptch1, Gli1, and β-actin were purchased from Applied Biosystems. Reactions and measurements were performed using on an Applied Biosystems 7900HT at Harvard FAS Center of System Biology. β-actin was used to normalize Ptch1 and Gil1 values.

[2] = tested on: Smo::EGFP/Ivs::tagRFPT cells; assay: Cytotoxicity in vitro in the high content assay; conditions: doses up to 200 μM
Description: Hoechst staining was used to determine the total number of nuclei per well.
Cells were cultured and treated in 384-well imaging plate precoated with poly-D-Lysine (Greiner Bio-one), fixed with 4% paraformaldehyde (Electron Microscopy Sciences), and stained with Hoechst (Invitrogen). Images were collected using Opera High Content Screening System (Perkin Elmer).

Smo = assay: Gli-luciferase reporter induced by Smo::GFP overexpression (Smo/LightII cells); conditions: Mus musculus, Shh Light II; 3T3/Smo::GFP Overexpression/Shh-LightII; stimulus none; read-out: IC50, inhibition of expression of Gli-luciferase reporter induced by Smo::GFP overexpression
Excerpt: NIH/3T3 cells were maintained in DMEM containing 10% (v/v) calf serum, penicillin, streptomycin, and L-glutamine. HEK293, L, cos 7, and suFU−/− mouse embryonic fibroblast cells were maintained in DMEM containing 10% (v/v) fetal bovine serum, penicillin, streptomycin, and L-glutamine. Smo::EGFP, SmoM2::GFP, and Ivs::tagRFPT were cloned into pBabe to generate retroviral particles for infection. Smo::EGFP/Ivs::tagRFPT and SmoM2::GFP/Ivs::tagRFPT stable cell lines were generated through viral infection of NIH/3T3^12. A ShhLightII Gli reporter cell line was obtained from the American Type Culture Collection (ATCC) and used in luciferase reporter assays to measure Hh pathway activity. […]
Hh activity assays were performed using ShhLightll cells, Smo/Lightll cells, SmoM2/Lightll cells, and suFU−/− mouse embryonic fibroblasts. In the suFU−/− cells, Hh activity was measured after co-transfection with Gli driven firefly luciferase and TK-renilla luciferase reporters^41. Wnt activity was measured in 293 cells co-transfected with Top-flash and TK-renilla luciferase reporters^42. Cells were cultured and treated in 96 well assay plates (Corning) and incubated with Duo-Glo luciferase substrates (Promega) to measure firefly and renilla luciferase activity sequentially using a Top Count NX Microplate Scintillation and Luminescence Counter (Perkin Elmer). […]

Hh pathway activity [3] = assay: SAG-induced Gli-luciferase reporter expression (3T3/Shh-LightII); conditions: Mus musculus, Shh Light II, 3T3/Shh-LightII cells; 100 nM SAG; read-out: IC50, inhibition of SAG-induced expression of Gli-luciferase reporter
Description: (§2) Hh activity assays were performed using ShhLightll cells, Smo/Lightll cells, SmoM2/Lightll cells, and suFU−/− mouse embryonic fibroblasts. In the suFU−/− cells, Hh activity was measured after co-transfection with Gli driven firefly luciferase and TK-renilla luciferase reporters^41. Wnt activity was measured in 293 cells co-transfected with Top-flash and TK-renilla luciferase reporters^42. Cells were cultured and treated in 96 well assay plates (Corning) and incubated with Duo-Glo luciferase substrates (Promega) to measure firefly and renilla luciferase activity sequentially using a Top Count NX Microplate Scintillation and Luminescence Counter (Perkin Elmer). The renilla luciferase signal was used to normalize the firefly reporter activity.
(§3) ShhLightII cells and SmoM2/LightII cells were cultured and treated in 96 well assay plates (Corning) and incubated with Duo-Glo luciferase substrates (Promega) to sequentially measure firefly and renilla luciferase activity. […] Wnt activity was measured following co-transfection of a Top-flash and renilla luciferase reporter. […] Luciferase signal was read by TopCount NX Microplate Scintillation and Luminescence Counter (Perkin Elmer). Quantitative PCR probes for Ptch1, Gli1, and β-actin were purchased from Applied Biosystems. […]

SmoM2 = assay: Gli-luciferase reporter induced by SmoM2::GFP overexpression (SmoM2/LightII cells)
Excerpt: (§4) NIH/3T3 cells were maintained in DMEM containing 10% (v/v) calf serum, penicillin, streptomycin, and L-glutamine. HEK293, L, cos 7, and suFU−/− mouse embryonic fibroblast cells were maintained in DMEM containing 10% (v/v) fetal bovine serum, penicillin, streptomycin, and L-glutamine. Smo::EGFP, SmoM2::GFP, and Ivs::tagRFPT were cloned into pBabe to generate retroviral particles for infection. Smo::EGFP/Ivs::tagRFPT and SmoM2::GFP/Ivs::tagRFPT stable cell lines were generated through viral infection of NIH/3T3^12. A ShhLightII Gli reporter cell line was obtained from the American Type Culture Collection (ATCC) and used in luciferase reporter assays to measure Hh pathway activity. The cell line contains a stably integrated Gli-responsive Firefly luciferase reporter and a constitutive Renilla luciferase expression construct^33. Subclones expressing Smo or SmoM2 in ShhLightII cells were used for chemical epistasis analyses.
as §2, §1

[4] = tested on: Hh pathway activation induced by loss of suFU; assay: Gli-luciferase assay in suFU−/− mouse embryonic fibroblasts; conditions: suFU−/− cells
Description: as §2, §3

SmoM2::GFP = target: T1, SmoM2::GFP (Homo sapiens, UniProt Q99835, W535L); assay: Ciliary localization of SmoM2::GFP (3T3/SmoM2::GFP Overexpression/Ivs::tagRFPT)
T1 construct: expressed in transfected cells
T1 sequence (Q99835 28-787 W535L): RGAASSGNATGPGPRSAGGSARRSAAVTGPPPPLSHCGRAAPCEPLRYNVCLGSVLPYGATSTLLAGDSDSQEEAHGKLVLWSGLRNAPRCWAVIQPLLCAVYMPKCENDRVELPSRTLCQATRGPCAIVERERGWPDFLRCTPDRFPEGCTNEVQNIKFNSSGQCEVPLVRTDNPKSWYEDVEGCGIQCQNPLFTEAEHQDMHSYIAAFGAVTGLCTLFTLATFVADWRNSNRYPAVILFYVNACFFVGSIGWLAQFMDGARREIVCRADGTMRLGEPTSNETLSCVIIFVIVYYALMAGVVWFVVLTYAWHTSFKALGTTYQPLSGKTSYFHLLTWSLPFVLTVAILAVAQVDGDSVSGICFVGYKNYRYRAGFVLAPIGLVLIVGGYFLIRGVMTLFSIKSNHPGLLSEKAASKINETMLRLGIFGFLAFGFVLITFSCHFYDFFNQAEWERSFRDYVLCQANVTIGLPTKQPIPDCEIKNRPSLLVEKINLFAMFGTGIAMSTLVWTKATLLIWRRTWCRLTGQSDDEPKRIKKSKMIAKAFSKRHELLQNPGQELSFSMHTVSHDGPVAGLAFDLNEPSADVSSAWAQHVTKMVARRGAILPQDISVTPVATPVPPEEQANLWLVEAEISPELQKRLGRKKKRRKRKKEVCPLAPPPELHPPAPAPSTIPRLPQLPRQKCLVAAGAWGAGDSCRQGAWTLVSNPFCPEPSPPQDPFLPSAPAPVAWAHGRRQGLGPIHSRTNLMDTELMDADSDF
Excerpt: as §4
(§5) Cells were cultured and treated in 384-well imaging plate precoated with poly-D-Lysine (Greiner Bio-one), fixed with 4% paraformaldehyde (Electron Microscopy Sciences), and stained with Hoechst (Invitrogen). Images were collected using Opera High Content Screening System (Perkin Elmer). Activityl)ase (IDBS Inc, Emeryvill, Calif.) and Pipeline Pilot (Accelrys, Inc. San Diego, Calif.) were used for high content screening data management and analysis. Acapella 2.0 software (Evotec Technologies/PerkinElmer) was used to perform multi-parametrical high content image quantification. All the images for comparison were scanned with identical microscopic settings and analyzed with the same input parameters.
(§6) Acapella 2.0 software (Evotec Technologies/PerkinElmer) was used to perform multi-parametric high content image quantification. Our image analysis script used Ivs::tagREPT to first determine the location of the PC and then Smo::EGFP to quantify the level of Smo present in the cilium.

Smo::EGFP = target: T2, Smo::EGFP (Homo sapiens, UniProt Q99835); assay: Cyc-induced Smo ciliary accumulation (Smo::EGFP/Ivs::tagRFPT cells); conditions: 5 μM Cyc
T2 construct: expressed in transfected cells
T2 sequence (Q99835 28-787): as the sequence (Q99835 28-787 W535L) above, with L508W counted along it
Description: as §5, §6

Compound | Hh pathway activation in transcription reporter assay (Hh pathway activity [1]; FA 10 μM) | transcriptional response in Gli-luciferase reporter assay (Hh pathway activity [1]; FA >50 μM) | EC50 (Hh pathway activity [1]; Mus musculus, NIH3T3, Gli-luciferase reporter, compound alone, read-out: EC50 for weak transcriptional activation) | cytotoxic effects in vitro [2] | IC50 (Smo) | IC50 (Hh pathway activity [3]) | IC50 (SmoM2; Mus musculus, Shh Light II, 3T3/SmoM2::GFP Overexpression/Shh-LightII, stimulus none, read-out: IC50, inhibition of expression of Gli-luciferase reporter induced by SmoM2::GFP overexpression) | effect on SmoM2 driven Hh pathway activity, transcriptional reporter (SmoM2; SmoM2 overexpression) | effect on Hh pathway activation induced by loss of suFU [4] | IC50 (SmoM2::GFP; 3T3/SmoM2::GFP Overexpression/Ivs::tagRFPT, stimulus none, read-out: IC50, inhibition of ciliary localization of SmoM2::GFP) | effect on SmoM2 ciliary localization (SmoM2::GFP; SmoM2::EGFP overexpressing cells) | effect on Cyc induced Smo cilial accumulation (Smo::EGFP)
CC1(C)O[C@@H]2C[C@H]3[C@@H]4C[C@H](F)C5=CC(=O)C=C[C@]5(C)[C@@]4(F)[C@@H](O)C[C@]3(C)[C@]2(C(=O)CO)O1 [FA, fluocinolone acetonide] | no pathway activation was observed | 4 fold | > 50 µM | no obvious cytotoxic effects | – | – | – | – | – | – | – | –
CCN(CC)c1ccc(/C=N/NC(=O)c2ccc(O)cc2)cc1 [DY131] | – | – | – | – | > 30 µM | ~2 µM | > 30 µM | failed to inhibit | does not alter | > 30 µM | failed to inhibit | effectively compete with Cyc
